# Assay results as given in US20240383874A1, “BENZENE RING DERIVATIVE, AND COMPOSITION AND PHARMACEUTICAL USE THEREOF” (Xizang Haisco Pharmaceutical Co., Ltd., priority 2020, published 2024).
# Counter-ions that a name gives are not always drawn. Like-named read-outs stand apart in the source and are kept apart here.
# Tested on: 22RV1 cells
# Assay: Experiment 2 on inhibiting 22RV1 cell proliferation (7 days, CellTiter-Glo)
# Format: cell-based
# Conditions: 1% css-FBS phenol red-free medium, incubated with compound 7 days, read-out: IC50 values on proliferation inhibition of 22RV1 cells
# Method: Prostate cancer cells 22RV1 were purchased from ATCC, the cell medium was RPMI 1640+10% FBS, and the cells were cultured in an incubator at 37° C. under 5% CO2. On day 1, the cells in an exponential phase were collected. With a 1% css-FBS phenol red-free medium, the cell suspension was adjusted to a corresponding concentration, plated at 2000 cells/well and incubated overnight. On day 2, compounds at different concentrations were added, and the plate was placed in the incubator and incubated for further 7 days. After the incubation was completed, according to operation instructions for a CellTiter-Glo kit (Promega, G7573), 50 μL of CTG solution, which was already pre-melted and equilibrated to room temperature, was added to each well, and the mixtures were uniformly mixed for 2 min using a microplate shaker. The plate was placed at room temperature for 10 min, and then fluorescence signal values were measured using a microplate reader (PHERAstar FSX). The results were processed according to formula (2), the survival rate of the compound at different concentrations was calculated, and the IC50 value of the compound with a survival rate of 50% was calculated using origin9.2 software with DoseResp function, wherein RLU compound was the readout of the treated group, and RLU control was the average value of the DMSO vehicle control group.
IC50 [nM],"IC50 (Homo sapiens, 22Rv1, 168 h) [nM]",SMILES
356,,"CC(C)(c1ccc(OCc2ccnc(N3CCN(CC4CCN(C5CCN(c6ccc7c(c6)C(=O)N(C6CCC(=O)NC6=O)C7=O)CC5)CC4)CC3)n2)cc1)c1cc(Cl)c(OCCCl)c(C#N)c1 (stereo not shown) [Compound 11, 3-chloro-2-(2-chloroethoxy)-5-(2-(4-((2-(4-((1′-(2-(2,6-dioxopiperidin-3-yl)-1,3-dioxoisoindolin-5-yl)-[1,4′-bipiperidin]-4-yl)methyl)piperazin-1-yl)pyrimidin-4-yl)methoxy)phenyl)propan-2-yl)benzonitrile]"
804,,"CC(C)(c1ccc(OCc2ccnc(N3CCN(CC4CCN(C5CCN(c6cccc7c6C(=O)N(C6CCC(=O)NC6=O)C7=O)CC5)CC4)CC3)n2)cc1)c1cc(Cl)c(OCCCl)c(C#N)c1 (stereo not shown) [Compound 12, 3-chloro-2-(2-chloroethoxy)-5-(2-(4-((2-(4-((1′-(2-(2,6-dioxopiperidin-3-yl)-1,3-dioxoisoindolin-4-yl)-[1,4′-bipiperidin]-4-yl)methyl)piperazin-1-yl)pyrimidin-4-yl)methoxy)phenyl)propan-2-yl)benzonitrile]"
721,,"CC(C)(c1ccc(OCc2ccnc(N3CCN(CC4CCN(CC5CCN(c6ccc7c(c6)C(=O)N(C6CCC(=O)NC6=O)C7=O)CC5)CC4)CC3)n2)cc1)c1cc(Cl)c(OCCCl)c(C#N)c1 (stereo not shown) [Compound 13, 3-chloro-2-(2-chloroethoxy)-5-(2-(4-((2-(4-((1-((1-(2-(2,6-dioxopiperidin-3-yl)-1,3-dioxoisoindolin-5-yl)piperidin-4-yl)methyl)piperidin-4-yl)methyl)piperazin-1-yl)pyrimidin-4-yl)methoxy)phenyl)propan-2-yl)benzonitrile]"
628,,"CC(C)(c1ccc(OCc2ccnc(N3CCN(CC4CCN(CC5CCN(c6cccc7c6C(=O)N(C6CCC(=O)NC6=O)C7=O)CC5)CC4)CC3)n2)cc1)c1cc(Cl)c(OCCCl)c(C#N)c1 (stereo not shown) [Compound 14, 3-chloro-2-(2-chloroethoxy)-5-(2-(4-((2-(4-((1-((1-(2-(2,6-dioxopiperidin-3-yl)-1,3-dioxoisoindolin-4-yl)piperidin-4-yl)methyl)piperidin-4-yl)methyl)piperazin-1-yl)pyrimidin-4-yl)methoxy)phenyl)propan-2-yl)benzonitrile]"
802,,"CC(C)(c1ccc(OCc2ccnc(N3C[C@@H]4CN(C5CCN(CC6CCN(c7ccc8c(c7)C(=O)N(C7CCC(=O)NC7=O)C8=O)CC6)CC5)C[C@@H]4C3)n2)cc1)c1cc(Cl)c(OCCCl)c(C#N)c1 (stereo partly drawn) [Compound 16, 3-chloro-2-(2-chloroethoxy)-5-(2-(4-((2-((3aR,6aS)-5-(1-((1-(2-(2,6-dioxopiperidin-3-yl)-1,3-dioxoisoindolin-5-yl)piperidin-4-yl)methyl)piperidin-4-yl)hexahydropyrrolo[3,4-c]pyrrol-2(1H)-yl)pyrimidin-4-yl)methoxy)phenyl)propan-2-yl)benzonitrile]"
1020,,"CC(C)(c1ccc(OCc2ccnc(N3C[C@@H]4CN(C5CCN(C6CN(c7ccc8c(c7)C(=O)N(C7CCC(=O)NC7=O)C8=O)C6)CC5)C[C@@H]4C3)n2)cc1)c1cc(Cl)c(OCCCl)c(C#N)c1 (stereo partly drawn) [Compound 17, 3-chloro-2-(2-chloroethoxy)-5-(2-(4-((2-((3aR,6aS)-5-(1-(1-(2-(2,6-dioxopiperidin-3-yl)-1,3-dioxoisoindolin-5-yl)azetidin-3-yl)piperidin-4-yl)hexahydropyrrolo[3,4-c]pyrrol-2(1H)-yl)pyrimidin-4-yl)methoxy)phenyl)propan-2-yl)benzonitrile]"
954,,"CC(C)(c1ccc(OCc2ccnc(N3CCC4(CC3)CN(C3CCN(C5CN(c6ccc7c(c6)C(=O)N(C6CCC(=O)NC6=O)C7=O)C5)CC3)C4)n2)cc1)c1cc(Cl)c(OCCCl)c(C#N)c1 (stereo not shown) [Compound 20, 3-chloro-2-(2-chloroethoxy)-5-(2-(4-((2-(2-(1-(1-(2-(2,6-dioxopiperidin-3-yl)-1,3-dioxoisoindolin-5-yl)azetidin-3-yl)piperidin-4-yl)-2,7-diazaspiro[3.5]nonan-7-yl)pyrimidin-4-yl)methoxy)phenyl)propan-2-yl)benzonitrile]"
507,,"CC(C)(c1ccc(OCc2ccnc(N3CCC4(CC3)CN(C3CCN(CC5CCN(c6ccc7c(c6)C(=O)N(C6CCC(=O)NC6=O)C7=O)CC5)CC3)C4)n2)cc1)c1cc(Cl)c(OCCCl)c(C#N)c1 (stereo not shown) [Compound 21, 3-chloro-2-(2-chloroethoxy)-5-(2-(4-((2-(2-(1-((1-(2-(2,6-dioxopiperidin-3-yl)-1,3-dioxoisoindolin-5-yl)piperidin-4-yl)methyl)piperidin-4-yl)-2,7-diazaspiro[3.5]nonan-7-yl)pyrimidin-4-yl)methoxy)phenyl)propan-2-yl)benzonitrile]"
500,,"CC(C)(c1ccc(OCc2ccnc(N3CC4(CCN(C5CCN(C6CN(c7ccc8c(c7)C(=O)N(C7CCC(=O)NC7=O)C8=O)C6)CC5)CC4)C3)n2)cc1)c1cc(Cl)c(OCCCl)c(C#N)c1 (stereo not shown) [Compound 23, 3-chloro-2-(2-chloroethoxy)-5-(2-(4-((2-(7-(1-(1-(2-(2,6-dioxopiperidin-3-yl)-1,3-dioxoisoindolin-5-yl)azetidin-3-yl)piperidin-4-yl)-2,7-diazaspiro[3.5]nonan-2-yl)pyrimidin-4-yl)methoxy)phenyl)propan-2-yl)benzonitrile]"
569,,"CC(C)(c1ccc(OCc2ccnc(N3CC4(CCN(C5CCN(CC6CCN(c7ccc8c(c7)C(=O)N(C7CCC(=O)NC7=O)C8=O)CC6)CC5)CC4)C3)n2)cc1)c1cc(Cl)c(OCCCl)c(C#N)c1 (stereo not shown) [Compound 24, 3-chloro-2-(2-chloroethoxy)-5-(2-(4-((2-(7-(1-((1-(2-(2,6-dioxopiperidin-3-yl)-1,3-dioxoisoindolin-5-yl)piperidin-4-yl)methyl)piperidin-4-yl)-2,7-diazaspiro[3.5]nonan-2-yl)pyrimidin-4-yl)methoxy)phenyl)propan-2-yl)benzonitrile]"
542,,"CC(C)(c1ccc(OCc2ccnc(N3CC4(CCN(C5CCN(CC6CCN(c7cccc8c7C(=O)N(C7CCC(=O)NC7=O)C8=O)CC6)CC5)CC4)C3)n2)cc1)c1cc(Cl)c(OCCCl)c(C#N)c1 (stereo not shown) [Compound 25, 3-chloro-2-(2-chloroethoxy)-5-(2-(4-((2-(7-(1-((1-(2-(2,6-dioxopiperidin-3-yl)-1,3-dioxoisoindolin-4-yl)piperidin-4-yl)methyl)piperidin-4-yl)-2,7-diazaspiro[3.5]nonan-2-yl)pyrimidin-4-yl)methoxy)phenyl)propan-2-yl)benzonitrile]"
548,,"Cn1c(=O)n(C2CCC(=O)NC2=O)c2cccc(CN3CC(N4CCC(N5CCC6(CC5)CN(c5nccc(COc7ccc(C(C)(C)c8cc(Cl)c(OCCCl)c(C#N)c8)cc7)n5)C6)CC4)C3)c21 (stereo not shown) [Compound 26, 3-chloro-2-(2-chloroethoxy)-5-(2-(4-((2-(7-(1-(1-((1-(2,6-dioxopiperidin-3-yl)-3-methyl-2-oxo-2,3-dihydro-1H-benzo[d]imidazol-4-yl)methyl)azetidin-3-yl)piperidin-4-yl)-2,7-diazaspiro[3.5]nonan-2-yl)pyrimidin-4-yl)methoxy)phenyl)propan-2-yl)benzonitrile]"
663,,"CC(C)(c1ccc(OCc2ccnc(N3CCC4(CC3)CCN(C3CCN(CC5CCN(c6ccc7c(c6)C(=O)N(C6CCC(=O)NC6=O)C7=O)CC5)CC3)CC4)n2)cc1)c1cc(Cl)c(OCCCl)c(C#N)c1 (stereo not shown) [Compound 27, 3-chloro-2-(2-chloroethoxy)-5-(2-(4-((2-(9-(1-((1-(2-(2,6-dioxopiperidin-3-yl)-1,3-dioxoisoindolin-5-yl)piperidin-4-yl)methyl)piperidin-4-yl)-3,9-diazaspiro[5.5]undecan-3-yl)pyrimidin-4-yl)methoxy)phenyl)propan-2-yl)benzonitrile]"
634,,"CC(C)(c1ccc(OCc2ccnc(N3CCC4(CC3)CCN(C3CCN(CC5CCN(c6cccc7c6C(=O)N(C6CCC(=O)NC6=O)C7=O)CC5)CC3)CC4)n2)cc1)c1cc(Cl)c(OCCCl)c(C#N)c1 (stereo not shown) [Compound 28, 3-chloro-2-(2-chloroethoxy)-5-(2-(4-((2-(9-(1-((1-(2-(2,6-dioxopiperidin-3-yl)-1,3-dioxoisoindolin-4-yl)piperidin-4-yl)methyl)piperidin-4-yl)-3,9-diazaspiro[5.5]undecan-3-yl)pyrimidin-4-yl)methoxy)phenyl)propan-2-yl)benzonitrile]"
,788,"Cn1c(=O)n(C2CCC(=O)NC2=O)c2cccc(CN3CC(N4CCC5(CCN(c6nccc(COc7ccc(C(C)(C)c8cc(Cl)c(OCCCl)c(C#N)c8)cc7)n6)CC5)CC4)C3)c21 (stereo not shown) [Compound 29 trifluoroacetate, 3-chloro-2-(2-chloroethoxy)-5-(2-(4-((2-(9-(1-((1-(2,6-dioxopiperidin-3-yl)-3-methyl-2-oxo-2,3-dihydro-1H-benzo[d]imidazol-4-yl)methyl)azetidin-3-yl)-3,9-diazaspiro[5.5]undecan-3-yl)pyrimidin-4-yl)methoxy)phenyl)propan-2-yl)benzonitrile]"
,834,"CC(C)(c1ccc(OCc2ccnc(N3CCC4(CC3)CCN(C3CCN(C5CN(c6ccc7c(c6)C(=O)N(C6CCC(=O)NC6=O)C7=O)C5)CC3)CC4)n2)cc1)c1cc(Cl)c(OCCCl)c(C#N)c1 (stereo not shown) [Compound 30 trifluoroacetate, 3-chloro-2-(2-chloroethoxy)-5-(2-(4-((2-(9-(1-(1-(2-(2,6-dioxopiperidin-3-yl)-1,3-dioxoisoindolin-5-yl)azetidin-3-yl)piperidin-4-yl)-3,9-diazaspiro[5.5]undecan-3-yl)pyrimidin-4-yl)methoxy)phenyl)propan-2-yl)benzonitrile]"
